According to patent US20090170899A1, “Stimulators of 5-HT4 receptors and uses thereof” (priority 2004, published 2009):

Test system: hippocampal CA3 pyramidal neurons
Assay: Acute i.v. prucalopride on firing of hippocampal CA3 pyramidal neurons, with microiontophoresis
Format: in vivo, rat
Settings: prucalopride 1000 μg/kg i.v.
Experimental: FIGS. 9A to 9D. FIGS. 9A and 9C show a typical example (integrated firing rate histogram) of the response of a single hippocampal pyramidal neuron of the CA3 sub-field to an acute, intravenous administration of the selective 5-HT4 agonist prucalopride (1000 μg/kg), and its reversal by local, microiontophoretic application of the selective 5-HT1A antagonist WAY 100635 (A), or systemic injection of the selective 5-HT4 antagonist GR 125487 (1000 μg/kg, i.v.) (C). Single-cell extracellular recordings were performed in the CA3 region of chloral-hydrate anaesthetized rats by using multiple-barrel glass microelectrodes, combined with microiontophoretic pumps (with the central barrel used for recordings). Pyramidal neurons were identified according to the classical criteria (see Example 5, experimental procedures). FIGS. 9B and 9D show a summary of the effects as for FIGS. 9A and 9C, respectively. Bar histograms represent the mean (S.E.M.) percentage effect, calculated for each neuron with respect to its basal firing rate (i.e. 100% value), and the number in each column represents the number of neurons tested. *p<0.05 vs basal value, one-way ANOVA.
Microiontophoresis and extracellular recordings from hippocampal CA3 pyramidal neurons. Recording and microiontophoresis were performed with five-barreled glass micropipettes broken back to 8-12 μm under microscope control. The central barrel was filled with the same solution as in the DRN and was used for extracellular unitary recordings. Pyramidal neurons were identified by their large amplitude (0.5-1.2 mV) and long-duration (0.8-1.2 ms) simple spikes alternating with complex spike discharges (Kandel and Spencer, 1961). The side barrels contained the following solutions: quisqualate (1.5 mM in 200 mM NaCl, pH 8), WAY 100635 (15 mM in 200 mM NaCl, pH 4), and 2 M NaCl used for automatic current balancing. Rats were mounted in the stereotaxic apparatus and the micropipettes were lowered at 4.2 mm lateral and 4.2 anterior to lambda into the CA3 sub-region of the dorsal hippocampus.
Involvement of endogenous 5-HT and hippocampal 5-HT1A receptors in the effect of 5-HT4 agonists. […] This interpretation is consistent with our own previous findings, showing that both acute and chronic (3-day) administration of the same compounds augment DRN 5-HT neuronal firing activity (Lucas and Debonnel, 2002; Lucas et al., 2005). It is also in keeping with observations from a single in vivo microdialysis study, where acute systemic injection of preferential 5-HT4 agonists increased hippocampal 5-HT efflux (Ge and Barnes, 1996). To further address this possibility, two additional series of experiments were conducted. First, the role of endogenous 5-HT was assessed by using the same protocol as above, in rats co-treated with RS 67333 (or its vehicle) and the 5-HT depleter para-chlorophenylalanine (pCPA). […] The ejection currents of quisqualate needed to activate CA3 pyramidal neurons were, in this case, similar to those used in controls (0 to −2 nA, FIG. 8C). We then tested the ability of a local application of WAY 100635, directly into the CA3 subfield through the use of microiontophoresis, to modify the effect of a 5-HT4 agonist. We chose not to use the previous protocol (i.e. chronic treatments), because, as shown above, the required quisqualate currents differ between the experimental groups. Even though all currents were balanced, it was not possible to exclude the possibility that the amount of quisqualate present in the vicinity of the electrode may have an influence on the quantity of WAY 100635 actually ejected, and/or on its ability to act on pyramidal neurons. For this reason, prucalopride was used acutely in naïve rats, at a dose known to induce a significant augmentation of DRN 5-HT neuronal activity (1000 μg/kg, i.v.) (Lucas and Debonnel, 2002). […]

COCCCN1CCC(NC(=O)c2cc(Cl)c(N)c3c2OCC3)CC1 [prucalopride]
inhibition at 1 mg/kg (Rattus norvegicus, Pyramidal neuron, iv, Discussion): ~50%
discharge of inhibited CA3 pyramidal neurons (naïve rats, the 17 inhibited neurons): 46 (±5.6) % of pre-drug values
share of recorded pyramidal neurons inhibited (17 of 38 neurons): 45 % of total
